26 compounds from ChEMBL document CHEMBL1132780, “Synthesis and NK1/NK2 receptor activity of substituted-4(Z)-(methoxyimino)pentyl-1-piperazines” (Bioorg Med Chem Lett, 2000) can be followed below.

One assay has as its target Substance-P receptor (Homo sapiens, UniProt P25103). Nature of the assay: Inhibitory activity against human tachykinin receptor 1.
A further assay deals with T1, Substance-K receptor (Homo sapiens, UniProt P21452).
T1 sequence (P21452 whole entry): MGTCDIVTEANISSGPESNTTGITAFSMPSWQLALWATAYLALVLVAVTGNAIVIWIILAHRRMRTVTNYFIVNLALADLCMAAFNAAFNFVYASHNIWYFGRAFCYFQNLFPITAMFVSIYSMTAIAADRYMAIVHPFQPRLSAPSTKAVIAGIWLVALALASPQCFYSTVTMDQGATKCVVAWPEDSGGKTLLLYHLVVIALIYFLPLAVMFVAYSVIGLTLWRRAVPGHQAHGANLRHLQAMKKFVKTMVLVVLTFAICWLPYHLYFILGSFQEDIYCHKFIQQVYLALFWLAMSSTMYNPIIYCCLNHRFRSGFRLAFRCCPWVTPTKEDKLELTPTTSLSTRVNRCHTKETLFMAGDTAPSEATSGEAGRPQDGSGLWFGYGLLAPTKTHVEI
Description: Inhibitory activity against human tachykinin receptor 2.

Chain of Substance-P receptor (P25103 whole entry): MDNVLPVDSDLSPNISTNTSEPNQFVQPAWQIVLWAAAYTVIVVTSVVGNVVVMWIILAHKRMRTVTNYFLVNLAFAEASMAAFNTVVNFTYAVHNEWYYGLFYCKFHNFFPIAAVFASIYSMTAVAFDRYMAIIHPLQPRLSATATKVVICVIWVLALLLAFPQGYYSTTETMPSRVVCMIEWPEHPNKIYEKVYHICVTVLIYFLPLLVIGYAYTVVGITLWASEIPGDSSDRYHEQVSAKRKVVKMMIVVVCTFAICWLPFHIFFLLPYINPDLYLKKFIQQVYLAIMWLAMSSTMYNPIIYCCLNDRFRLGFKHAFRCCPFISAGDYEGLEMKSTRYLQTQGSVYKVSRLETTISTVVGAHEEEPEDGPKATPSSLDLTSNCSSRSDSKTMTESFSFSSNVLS

As to `CO/N=C(\COCc1cc(C(F)(F)F)cc(C(F)(F)F)c1)C(CCN1CCN(CC(=O)N(C(C)C)C(C)C)CC1)c1ccc(Cl)c(Cl)c1` (configuration not stated), the Ki at Substance-P receptor is 0.082 µM; on Substance-K receptor, 0.17 µM.

As for `CCOCCCNC(=O)CN1CCN(CCC(/C(COCc2cc(C(F)(F)F)cc(C(F)(F)F)c2)=N/OC)c2ccc(Cl)c(Cl)c2)CC1` (configuration not stated), the Ki was determined as 0.039 µM at Substance-P receptor and 0.382 µM on Substance-K receptor.

Turning to `CO/N=C(\COCc1cc(C(F)(F)F)cc(C(F)(F)F)c1)C(CCN1CCN(CC(=O)N2CCc3ccccc3C2)CC1)c1ccc(Cl)c(Cl)c1` (configuration not stated), the Ki was 0.125 µM on Substance-P receptor and 0.566 µM at Substance-K receptor.

As for `CO/N=C(\COCc1cc(C(F)(F)F)cc(C(F)(F)F)c1)C(CCN1CCN(CC(=O)N2CCC2)CC1)c1ccc(Cl)c(Cl)c1` (configuration not stated), the Ki on Substance-P receptor stood at 0.023 µM; on Substance-K receptor, 0.033 µM.

In the case of `CO/N=C(\COCc1cc(C(F)(F)F)cc(C(F)(F)F)c1)C(CCN1CCN(CC(=O)N(C)C2CCCCC2)CC1)c1ccc(Cl)c(Cl)c1` (configuration not stated), the Ki on Substance-P receptor amounted to 0.113 µM; on Substance-K receptor, 0.368 µM.

For `CO/N=C(\COCc1cc(C(F)(F)F)cc(C(F)(F)F)c1)C(CCN1CCN(CC(=O)N2CCOCC2)CC1)c1ccc(Cl)c(Cl)c1` (configuration not stated), the values for the Ki at Substance-P receptor and on Substance-K receptor were 0.019 µM and 0.028 µM, respectively.

As for `CO/N=C(\COCc1cc(C(F)(F)F)cc(C(F)(F)F)c1)C(CCN1CCN(CC(=O)N2CCC[C@H]2C(N)=O)CC1)c1ccc(Cl)c(Cl)c1` (some centres not stated), the Ki turned out to be 0.024 µM at Substance-P receptor and 0.026 µM on Substance-K receptor.

With `CO/N=C(\COCc1cc(C(F)(F)F)cc(C(F)(F)F)c1)C(CCN1CCN(CC(=O)NC2CCc3ccccc32)CC1)c1ccc(Cl)c(Cl)c1` (configuration not stated), the figures for the Ki at Substance-P receptor and on Substance-K receptor were 0.136 µM and greater than 0.68 µM, respectively.

Turning to `CO/N=C(\COCc1cc(C(F)(F)F)cc(C(F)(F)F)c1)C(CCN1CCN(C)CC1)c1ccc(Cl)c(Cl)c1` (configuration not stated), the Ki on Substance-P receptor turned out to be 0.061 µM; at Substance-K receptor, 0.2 µM.

Take `CO/N=C(\COCc1cc(C(F)(F)F)cc(C(F)(F)F)c1)C(CCN1CCN(CC(=O)N2CCC(O)C2)CC1)c1ccc(Cl)c(Cl)c1` (configuration not stated): the Ki worked out at 0.016 µM on Substance-P receptor and 0.03 µM at Substance-K receptor.

In the case of `CO/N=C(\COCc1cc(C(F)(F)F)cc(C(F)(F)F)c1)C(CCN1CCN(CC(=O)N2CCCC2)CC1)c1ccc(Cl)c(Cl)c1` (configuration not stated), the Ki on Substance-P receptor turned out to be 0.014 µM; at Substance-K receptor it was 0.021 µM.

With `CO/N=C(\COCc1cc(C(F)(F)F)cc(C(F)(F)F)c1)C(CCN1CCN(CC(=O)N2CCC(N(C)C)C2)CC1)c1ccc(Cl)c(Cl)c1` (configuration not stated), the results for the Ki at Substance-P receptor and at Substance-K receptor were 0.014 µM and 0.095 µM, respectively.

As to `CO/N=C(\COCc1cc(C(F)(F)F)cc(C(F)(F)F)c1)C(CCN1CCN(c2ccccc2)CC1)c1ccc(Cl)c(Cl)c1` (configuration not stated), the Ki was determined as 0.181 µM on Substance-P receptor and 0.978 µM on Substance-K receptor.

On to `CO/N=C(\COCc1cc(C(F)(F)F)cc(C(F)(F)F)c1)C(CCN1CCN(C2CCCCC2)CC1)c1ccc(Cl)c(Cl)c1` (configuration not stated), for which the Ki came to 0.053 µM at Substance-P receptor and 0.128 µM at Substance-K receptor.

Consider `CO/N=C(\COCc1cc(C(F)(F)F)cc(C(F)(F)F)c1)C(CCN1CCN(CC(=O)N2CCCC(O)C2)CC1)c1ccc(Cl)c(Cl)c1` (configuration not stated), for which the figures for the Ki at Substance-P receptor and on Substance-K receptor were 0.013 µM and 0.038 µM, respectively.

As to `CO/N=C(\COCc1cc(C(F)(F)F)cc(C(F)(F)F)c1)C(CCN1CCN(c2ncccn2)CC1)c1ccc(Cl)c(Cl)c1` (configuration not stated), the Ki came out at 0.07 µM on Substance-P receptor and 0.217 µM on Substance-K receptor.

For `CO/N=C(\COCc1cc(C(F)(F)F)cc(C(F)(F)F)c1)C(CCN1CCN(CC(=O)NCC2CCCO2)CC1)c1ccc(Cl)c(Cl)c1` (configuration not stated), the Ki at Substance-P receptor was 0.02 µM; at Substance-K receptor it was 0.266 µM.

For `CO/N=C(\COCc1cc(C(F)(F)F)cc(C(F)(F)F)c1)C(CCN1CCN(CC(=O)N2CCC(NC(C)=O)C2)CC1)c1ccc(Cl)c(Cl)c1` (configuration not stated), the Ki was 0.009 µM at Substance-P receptor and 0.048 µM at Substance-K receptor.

With `CO/N=C(\COCc1cc(C(F)(F)F)cc(C(F)(F)F)c1)C(CCN1CCN(CC(=O)Nc2ccccc2)CC1)c1ccc(Cl)c(Cl)c1` (configuration not stated), the values for the Ki on Substance-P receptor and on Substance-K receptor were 0.125 µM and greater than 0.68 µM, respectively.

Turning to `CO/N=C(\COCc1cc(C(F)(F)F)cc(C(F)(F)F)c1)C(CCN1CCN(CC(=O)N2CC(O)C2)CC1)c1ccc(Cl)c(Cl)c1` (configuration not stated), the Ki at Substance-P receptor is 0.022 µM; at Substance-K receptor, 0.031 µM.

Take `CO/N=C(\COCc1cc(C(F)(F)F)cc(C(F)(F)F)c1)C(CCN1CCN(CC(=O)N2CCCC3CCCCC32)CC1)c1ccc(Cl)c(Cl)c1` (configuration not stated): the Ki on Substance-P receptor is 0.136 µM; on Substance-K receptor, 0.477 µM.

As to `CO/N=C(\COCc1cc(C(F)(F)F)cc(C(F)(F)F)c1)C(CCN1CCN(CC(=O)N2CCCCC2CO)CC1)c1ccc(Cl)c(Cl)c1` (configuration not stated), the results for the Ki on Substance-P receptor and on Substance-K receptor were 0.047 µM and 0.052 µM, respectively.

As for `CO/N=C(\COCc1cc(C(F)(F)F)cc(C(F)(F)F)c1)C(CCN1CCN(CC(=O)NC2CC2)CC1)c1ccc(Cl)c(Cl)c1` (configuration not stated), the Ki at Substance-P receptor was 0.062 µM; at Substance-K receptor, 0.259 µM.

Consider `CCOC(=O)C1CCN(C(=O)CN2CCN(CCC(/C(COCc3cc(C(F)(F)F)cc(C(F)(F)F)c3)=N/OC)c3ccc(Cl)c(Cl)c3)CC2)CC1` (configuration not stated), for which the Ki turned out to be 0.024 µM on Substance-P receptor and 0.409 µM at Substance-K receptor.

Take `CO/N=C(\COCc1cc(C(F)(F)F)cc(C(F)(F)F)c1)C(CCN1CCNCC1)c1ccc(Cl)c(Cl)c1` (configuration not stated): the Ki at Substance-P receptor was 0.03 µM; on Substance-K receptor it was 0.738 µM.

As for `CO/N=C(\COCc1cc(C(F)(F)F)cc(C(F)(F)F)c1)C(CCN1CCN(CC(=O)N2CCCCC2)CC1)c1ccc(Cl)c(Cl)c1` (configuration not stated), the results for the Ki at Substance-P receptor and on Substance-K receptor were 0.082 µM and 0.208 µM, respectively.

Usually Ki stands for a dissociation constant, usually derived from enzyme kinetics or from competition with a known ligand. A lower Ki goes with tighter binding.
